Experimental data published in patent US20140288117A1, “USE OF CYSTEAMINE IN TREATING PARKINSON'S DISEASE” (Omega Bio-Pharma (I.P. 2) Ltd, priority 2010, published 2014).

Columns and labels:
[1] = tested on: TH-immunoresponsive (TH-IR) neurons in the substantia nigra of MPTP-treated mice; test: Tyrosine hydroxylase immunohistochemistry: number of TH-IR neurons in substantia nigra; assay type: in vivo; conditions: mean±SD
Method: (§1) C57/BL mice weighted 20-22 g were used. […] The control group was injected with 0.9% saline.
Twenty-four hours later the last injection, mice were anesthetized with chloral hydrate (100 mg/kg). The mice were subjected to thoracotomy and perfusion with ice-cold 0.9% sodium chloride 50 ml, then with 4% paraformaldehyde (PFA) 100 ml in 0.01 M PBS through the left ventricular. After fixation, the brain was post-fixed and then cryoprotected in 30% sucrose for 24 h. The brains were sectioned through the substantia nigra (SN) coronally at 30 um thickness on a cryostat (Leica CM1900, Nussloch, Germany). Sections were collected in 0.01 M PBS and processed free floating. The free floating sections were washed 3 times in Tris-buffered saline (TBS), incubated with H2O2 (3%) for 30 min and blocked with 5% normal goat serum (NGS), 0.2% Triton X-100 in TBS. Sections were incubated for 24 h with primary rabbit anti-TH monoclonal antibody (1:10000) (Watanabe et al., “Protective effects of M, Matsubara, Imai Y, Araki T. neuronal nitric oxide synthase inhibitor in mouse brain against MPTP neurotoxicity: an immunohistological study,” Eur Neuropsychopharmacol. 14:93-104 (2004)). Sections were washed in PBS and incubated for 2 hr at room temperature in secondary antibodies: biotinylated goat anti-rabbit (1:500) diluted in blocking buffer. The sections were incubated for 2 hr at room temperature in horseradish peroxidase labeled avidin work […] solution (1:500). TH immunoreactivity was visualized in SN after incubation in DAB and Nickel sulfate salt for 5-10 min. Sections were mounted on slides, dried, dehydrated in graded ethanol, cleared in xylene, and mounted with DPX mounting medium and coverslip. To test the specificity of the immunostaining, control sections were processed in an identical manner but with the primary antibody omitted. After TH-staining, the image of the sections from the substantia nigra were digitalized with NIS-Elements imaging software (Nikon). The number of neurons was measured in the bilateral substantia nigra.

malondialdehyde (MDA) = test: Malondialdehyde (MDA) / TBARS lipid peroxidation in substantia nigra; assay type: in vivo, mice; conditions: n = 8
Method: as §1
(§2) The formation of thiobarbituric acid reactive species (TBARS) during an acid-heating reaction was determined by the absorbance at 532 nm. The rate of lipid peroxidation was expressed as nmol/mg protein. SOD activity was detected based on its ability to inhibit the superoxide anion free radical of O^2− generated by the xanthine/xanthine oxidase system. The absorbance at 550 nm was monitored and SOD levels were expressed as U/mg protein. The total glutathione (reduced and oxidized form of glutathione) was determined using glutathione reductase. Absorbance was measured at 412 nm using microplate reader. The standard curve was obtained from absorbance of the diluted commercial GSH that was incubated in the mixture as in samples. Results were reported as nmol TNB/mg protein.

[2] = tested on: superoxide dismutase (SOD); test: SOD activity in substantia nigra (xanthine/xanthine oxidase system); assay type: in vivo, mice; conditions: n = 8
Method: as §1, §2

[3] = tested on: striatal dopamine (DA) concentration; test: Assay of striatal dopamine (DA) by HPLC; assay type: in vivo, mice; conditions: mean±SD
Method: as §1
Samples were processed blindly to the treatment conditions for HPLC analysis with electrochemical detector (ECD) using the method by Beyer (Bayer, et al., 2002). Bilaterally corpus striatum tissues were sonicated in 1 ml of pre-colded 0.4 N HClO4. The resulting homogenates were centrifuged twice for 12 min at 12000×g at 4° C. Mobile phase consisting of 0.035 mol/L anhydrous citric acid, 0.09 mol/L without Water-sodium acetate, 0.23 mmol/L sodium alkane sulfonate, 0.13 mmol/L EDTA, 10% methanol (pH4.7). Electrochemical conditions for the experiment were +0.50V. Separation was carried out at a flow rate of 1.0 ml/min. Samples (20 μl) were automatic injected and were quantified by comparison of the area under the curve (AUC) against reference standards. The concentrations of DA were expressed as ng/mg protein of the brain tissue. Protein content was determined in tissue supernatants by the method of Lowry using bovine serum albumin as a standard (Lowry et al., “Protein measurement with the Folin phenol reagent,” J Biol Chem. 193:265-275 (1951)).

[4] = tested on: reactive oxygen species (ROS); test: ROS level in substantia nigra cells by DCDHF-DA fluorescence; assay type: in vivo, mice; conditions: n = 8
Method: as §1
The ROS level was measured using 2′,7′-dichlorodihydrofluorescein diacetate (DCDHF-DA). DCDHF-DA which is cell-permeable and non-fluorescent, and, in the presence of ROS it is oxidized inside cells and transformed into a fluorescent compound, 2′,7′-dichlorofluorescein (DCDF), which remains trapped within the cell. To measure the ROS level in substantia nigra, isolated cells (10^5/ml) were incubated with 50 μM DCDHF-DA for 40 min at 37° C. and washed twice in PBS. The fluorescence was monitored in microplate reader (Liu, et al., 2009). For each sample, 10,000 cells were acquired. Data were expressed as an average of fluorescence intensity of analyzed cell population (mean fluorescence intensity±SD).

[5] = tested on: glutathione (GSH) levels in the SNpc; test: Total glutathione (GSH) level in SNpc using glutathione reductase; assay type: in vivo, mice; conditions: mean±SD
Method: as §1, §2

[6] = tested on: brain-derived neurotrophic factor (BDNF); test: BDNF concentration in substantia nigra by ABC-ELISA; conditions: for BDNF concentration in substantia nigra: mean±SD
Method: C57/BL mice weighted 20-22 g were used. Mice were treated with cysteamine and/or induced by MPTP fresh preparations according to the group assignments. Group assignments (n=8/group) were as follows: (1) saline (control) group, (2) MPTP alone (see below), (3) cysteamine (CS) 20 mg/kg/d alone for two weeks, (4) CS 75 mg/kg/d alone for two weeks, (5) CS 20 mg/kg/d for total 14 days and MPTP was given from day 5 to 9, (6) CS 75 mg/kg/d for total 14 days and MPTP was given from day 5 to 9, (7) simultaneous administration of MPTP and CS 20 mg/kg/d for 5 days followed by CS for additional 9 days, (8) simultaneous administration of MPTP and CS 75 mg/kg/d for 5 days followed by CS for additional 9 days. The control group was injected with 0.9% saline. MPTP (20 mg/kg) was intraperitoneally (i.p.) injected into the mice twice daily at an interval of 12 hrs for the initial 2 days and once per day on day 3-5 (Tremblay et al., “Neuroprotective effects of cystamine in aged parkinsonian mice,” Neurobiol Aging. 27:862-870 (2006)). CS (20 mg/kg/d and 75 mg/kg/day were injected alone for 14 days.
After treatment for 14 days, the animals were sacrificed by decapitation. Tissues were quickly removed from the brain on a Petri dish placed on ice using laboratory microscope (Chan et al., “Development of a high resolution three-dimensional surgical atlas of the murine head for strains 129S1/SvImJ and C57Bl/6J using magnetic resonance imaging and micro-computed tomography,” Neuroscience. 144:604-615 (2007)). Bilateral corpus striatum stored at −80° C. until used for HPLC analysis. Bilateral substantia nigra were immediately homogenized using an Ultrasonic Cell Disruptor (Biologics, Model 150 V/T), and which were centrifuged. The supernatant was used for the estimation of various enzyme activities.
The concentration of BDNF was measured by an ABC-ELISA method, according to the manufacturer's protocol (Beyotime Institute of Biotechnology). […] OD value and BDNF concentration are proportional to the standard curve obtained the standard BDNF concentrations. Data are represented as pg/mg protein.

[7] = C20 mg alone (cysteamine 20 mg/kg/d, no MPTP)
[8] = C75 mg alone (cysteamine 75 mg/kg/d, no MPTP)

CN1CC=C(c2ccccc2)CC1.Cl [MPTP, 1-methyl-4-phenyl-1,2,3,6-tetrahydropyridine hydrochloride]
number of TH-IR nigral neurons ([1]; MPTP alone (20 mg/kg i.p., 5 days), control 295.65±47.47): 166.65±58.15
MDA (malondialdehyde (MDA); MPTP alone, substantia nigra, control 7.89 ± 0.65): 10.84 ± 2.65 nmol/mg
SOD ([2]; MPTP alone, substantia nigra, control 52.55 ± 13.35): 57.73 ± 9.57 U/mg
striatal DA concentration ([3]; MPTP alone, control 57.62±12.70): 26.38±6.47 ng/mg protein
ROS ([4]; MPTP alone, substantia nigra, control 13010 ± 261): 20207 ± 203 MFI
level of GSH in the SNpc ([5]; MPTP alone, control 3.52±1.44): 0.55±0.36 nmol TNB/mg protein
BDNF concentration in substantia nigra ([6]; MPTP alone, control 78.34±16.09): 39.55±7.82 pg/mg protein

NCCS [cysteamine]
number of TH-IR nigral neurons ([1]; cysteamine 20 mg/kg/d 4 days prior to and along with MPTP (CS20 mg/kg/d+MPTP)): 262.45±32.75
number of TH-IR nigral neurons ([1]; cysteamine 75 mg/kg/d alone, no MPTP): 271.05±44.93
number of TH-IR nigral neurons ([1]; cysteamine 75 mg/kg/d pretreatment + MPTP (CS75 mg/kg/d+MPTP)): 172.10±42.69
number of TH-IR nigral neurons ([1]; simultaneous treatment MPTP+CS20 mg/kg/d): 179.5±68.11
number of TH-IR nigral neurons ([1]; simultaneous treatment MPTP+CS75 mg/kg/d): 174.05±45.78
MDA (malondialdehyde (MDA); C20 mg + MPTP (pretreatment)): 8.25 ± 0.90 nmol/mg
MDA (malondialdehyde (MDA); [7]): 8.82 ± 2.44 nmol/mg
MDA (malondialdehyde (MDA); C75 mg + MPTP (pretreatment)): 8.56 ± 1.08 nmol/mg
MDA (malondialdehyde (MDA); [8]): 8.90 ± 2.14 nmol/mg
MDA (malondialdehyde (MDA); MPTP + C20 mg (simultaneous)): 9.86 ± 0.91 nmol/mg
MDA (malondialdehyde (MDA); MPTP + C75 mg (simultaneous)): 9.51 ± 0.57 nmol/mg
SOD ([2]; C20 mg + MPTP (pretreatment)): 62.11 ± 4.74 U/mg
SOD [2, 7]: 58.88 ± 17.66 U/mg
SOD ([2]; C75 mg + MPTP (pretreatment)): 58.53 ± 5.82 U/mg
SOD [2, 8]: 59.13 ± 10.66 U/mg
SOD ([2]; MPTP + C20 mg (simultaneous)): 66.77 ± 4.64 U/mg
SOD ([2]; MPTP + C75 mg (simultaneous)): 59.58 ± 2.24 U/mg
striatal DA concentration ([3]; cysteamine 20 mg/kg/d 4 days before and along with MPTP): 47.96±10.57 ng/mg protein
striatal DA concentration ([3]; cysteamine 75 mg/kg/d pretreatment + MPTP): 25.65±7.71 ng/mg protein
striatal DA concentration ([3]; cysteamine 75 mg/kg/day alone, no MPTP): 32.22±4.71 ng/mg protein
striatal DA concentration ([3]; simultaneous treatment cysteamine 20 mg/kg/d during MPTP): 36.27±16.42 ng/mg protein
striatal DA concentration ([3]; simultaneous treatment cysteamine 75 mg/kg/day during MPTP): 25.08±8.10 ng/mg protein
ROS ([4]; C20 mg + MPTP (pretreatment)): 17411 ± 589 MFI
ROS [4, 7]: 17460 ± 779 MFI
ROS ([4]; C75 mg + MPTP (pretreatment)): 17411 ± 362 MFI
ROS [4, 8]: 17980 ± 419 MFI
ROS ([4]; MPTP + C20 mg (simultaneous)): 19539 ± 431 MFI
ROS ([4]; MPTP + C75 mg (simultaneous)): 21976 ± 489 MFI
level of GSH in the SNpc ([5]; pretreatment with low dose cysteamine (20 mg/kg/d) + MPTP): 3.16±1.28 nmol TNB/mg protein
BDNF concentration in substantia nigra ([6]; high dose cysteamine (75 mg/kg/d) + MPTP): 55.43±12.15 pg/mg protein
BDNF concentration in substantia nigra ([6]; low dose cysteamine (20 mg/kg/d) + MPTP): 74.22±7.79 pg/mg protein
BDNF concentration in substantia nigra ([6]; low dose cysteamine (20 mg/kg/d) alone, no MPTP): 103.36±30.48 pg/mg protein
reversal of MPTP-induced decrease of BDNF ([6]; simultaneous administration of cysteamine (20 or 75 mg/kg/d) with MPTP, both P>0.05): did not reverse the decrease of BDNF by MPTP
